Several values for one entry are separate records, joined by “and”; a condition that tells them apart may be missing. Identical values can stand only once.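 Each compound was tested at five concentrations against cells in 96-well plates for 48 hours. At the TGI there is no net growth.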

Common to all, as to test: NCI tumour cell line growth inhibition, 48 h
Test [1] deals with HOP-18 NSCLC.
In test [2] the test system is LXFL 529 NSCLC.
Test [3] deals with RXF-631 renal.
In test [4] the test system is 786-0 renal.
Test [5] relates to DMS 114 small cell lung.
For test [6], the system named is P388 leukemia.
In test [7] the test system is P388/ADR leukemia.
Test [8] has as its system SN12K1 renal.
Test [9] concerns XF 498 CNS.

`C/C=C(/CCC1NCCc2c1[nH]c1ccccc21)[Si](C)(C)C` (stereo not drawn): the TGI in [1] is 24.2 µM; in test [2] it was 3.25 µM; in test [3] it was > 100 µM and 22.9 µM.
On to `CC(=O)Nc1ccc2c(c1)C(=O)c1ccccc1-2`, for which the TGI in [4], in test [5] and in test [2] was greater than 100 µM each time.
In test [4], `NS(=O)(=O)c1c(O)c2ccccc2oc1=O` yielded a TGI greater than 100 µM.
For `O=S1(=O)C(=C(c2ccccc2)c2ccccc2)S(=O)(=O)c2ccccc21`, the TGI is greater than 100 µM in [5]; greater than 100 µM in [1]; greater than 31.6 µM in test [6]; greater than 100 µM in test [7]; 65.1 µM in test [8]; 62.4 µM in test [9].

(Values after PubChem BioAssay (NCI).)
